Assay results published in patent US20200024223A1, “CRYSTALLINE SALTS OF (4S,4AS,5AR,12AS)-4-DIMETHYLAMINO-3,10,12,12A-TETRAHYDROXY-7-[(METHOXY(METHYL)AMINO)-METHYL]-1,11-DIOXO-1,4,4A,5,5A,6,11,12A-OCTAHYDRO-NAPHTHACENE-2-CARBOXYLIC ACID AMIDE AND METHODS OF USING THE SAME” (priority 2011, published 2020).
Converted amounts (≈) assume the structure as drawn. “And” between values parts separate entries of the source, which are not always exact repeats. Identical values can stand only once. Counter-ions that a name gives are not always drawn.

What was measured:
E. coli = experiment: In vitro MIC testing, antibacterial spectrum of activity; type: cell-based
[1] = Advantages and disadvantages of solid forms (hygroscopicity, milling/pressing, storage); type: physicochemical; conditions: for Hygroscopicity: relative humidity (RH)
Description: One measure of the stability of the physical form of the salt is hygroscopicity, which is the propensity of a substance to absorb or adsorb water molecules from the surrounding environment. Whenever moisture can promote degradation, the salt is stable if it is non-hygroscopic or mildly hygroscopic above 70% relative humidity (RH). In preferred embodiments, the salt is non-hygroscopic or mildly hygroscopic above 80% RH, and in more preferred embodiments, the salt is non-hygroscopic or mildly hygroscopic to 90% RH. “Non-hygroscopic or mildly hygroscopic” as used herein refers to a compound at about 40° C. and at an RH of about 75%, existing over about 80% w/w in solid crystalline form, preferably over about 90% w/w in solid crystalline form, that absorbs less than 10% w/w water, and preferably, less than 5% w/w water in 8 hours or less. Hygroscopicity (hygroscopic degree) is calculated based on increase in weight in a compound at comparative points of measurement. Another measure of physical stability is the crystal form of the salt, which may be measured by XPRD. The stability of Crystalline Mono Hydrochloride Salt was compared to the amorphous mono hydrochloride salt of Comparative Example 2.

[2] = Storage stability by HPLC-UV (chemical purity, β-isomer content, total impurity content); type: physicochemical; conditions: for Chemical Purity at 0 days / β-isomer content at 0 days: 0 days (after synthesis); for Chemical Purity at 75 days / β-isomer content at 75 days: stored in glass vial approximately 75 days at ambient conditions; for Chemical Purity at 7 days, 40° C. and 75% RH / β-isomer content at 7 days, 40° C. and 75% RH: storage 7 days at 40° C. and 75% RH
Procedure: The lower the β-isomer content, the higher the chemical purity of the salt. The β-isomer content is measured after synthesis of the salt and compared with the measured β-isomer content after storage for a designated period of time.
Another measure of chemical purity is defined by the content of other related impurities, by-products or degradation products of the salt, which represents the […] of the compound. The lower the content of total impurities as measured by HPLC, generally, by HPLC-UV, the higher the chemical purity of the salt. The total impurity content is measured after synthesis of the salt and compared with the measured total impurity content after storage for a designated period of time.
In order to determine the stability of Crystalline Mono Hydrochloride Salt, the β-isomer content of the salt was determined by HPLC-UV analysis and compared to the β-isomer content calculated after the salt was stored in an amber glass vial for approximately 75 days at ambient conditions.
The β-isomer content of Comparative Example 2 was also determined by HPLC-UV analysis at 0 days and compared to the β-isomer content calculated after the compound was stored in a clear glass vial for approximately 75 days at ambient conditions.
HPLC-UV and XRPD analysis were conducted on samples of Crystalline Mono Hydrochloride Salt, Crystalline Mesylate Salt and Crystalline Sulfate Salt at 0 days and after storage for 7 days at 40° C. and 75% RH. FIGS. 1, 4 and 7 show the XRPD analysis of the Crystalline Mono Hydrochloride Salt, Crystalline Mesylate Salt and Crystalline Sulfate Salt at 0 days and after storage at 40° C. and 75% RH with the graphs overlaid for comparison.
The results of HPLC-UV analysis for the same samples of Crystalline Mesylate Salt and Crystalline Sulfate Salt are shown in Table 4.

[3] = Differential scanning calorimetry (DSC); type: physicochemical
Procedure: DSC analysis as disclosed herein was collected on a TA Instruments Q2000 equipped with a 50 position auto-sampler. The instrument was calibrated for energy and temperature using certified indium. The calibration for thermal capacity was carried out using sapphire. […] A nitrogen purge at 50 ml.min^−1 was maintained over the sample. The instrument control software used was Advantage for Q Series v2.8.0.392 and Thermal Advantage v4.8.3 and the data was analyzed using Universal Analysis v4.4A. […] The observed apparent weight loss is due to instability of the machine. Table 5 below compares the DSC and TGA analysis of the crystalline salts of the present invention with the crystalline free base and Comparative Example 1.

[4] = Thermo-gravimetric analysis (TGA); type: physicochemical
Procedure: TGA is used to determine changes in weight in relation to change in temperature, which may reveal degradation of the compound and the presence of solvates or hydrates. TGA analysis as disclosed herein was collected on a TA Instruments Q500 TGA equipped with a 16 position auto-sampler. The instrument was temperature calibrated using certified Alumel and Nickel. […] A nitrogen purge at 60 ml.min^−1 was maintained over the sample. The instrument control and data analysis software used was Advantage for Q Series v2.8.0.392 and Thermal Advantage v4.8.3 and the data was analyzed using Universal Analysis v4.4A. […] The observed apparent weight loss is due to instability of the machine. Table 5 below compares the DSC and TGA analysis of the crystalline salts of the present invention with the crystalline free base and Comparative Example 1.

[5] = XRPD analysis of crystal form after storage; type: physicochemical; conditions: 7 days at 40° C. and 75% RH vs 0 days
Procedure: XRPD analysis as disclosed herein was collected on a Bruker AXS C2 GADDS diffractometer using Cu Kα radiation (40 kV, 40 mA), automated XYZ stage, laser video microscope for auto-sample positioning and a HiStar 2-dimensional area detector. X-ray optics consisted of a single Gbbel multilayer mirror coupled with a pinhole collimator of 0.3 mm. The software used for data collection was GADDS for WNT 4.1.16 and the data was analyzed and presented using Diffrac Plus EVA v 9.0.0.2 or v 13.0.0.2. Samples were analyzed under ambient conditions as flat plate specimens using powder as received. Approximately 1-2 mg of the sample was lightly pressed on a glass slide to obtain a flat surface. Samples analyzed under non-ambient conditions were mounted on a silicon wafer with a heat conducting compound. The sample was then heated to the appropriate temperature at approximately 20° C.min^−1 and subsequently held isothermally for approximately 1 minute before data collection was initiated.
HPLC-UV and XRPD analysis were conducted on samples of Crystalline Mono Hydrochloride Salt, Crystalline Mesylate Salt and Crystalline Sulfate Salt at 0 days and after storage for 7 days at 40° C. and 75% RH. FIGS. 1, 4 and 7 show the XRPD analysis of the Crystalline Mono Hydrochloride Salt, Crystalline Mesylate Salt and Crystalline Sulfate Salt at 0 days and after storage at 40° C. and 75% RH with the graphs overlaid for comparison. […] The changes shown in the figure are in intensity and resolution rather than in peak position, which, if present, would indicate change in crystal form. Accordingly, Crystalline Mono Hydrochloride Salt and Crystalline Mesylate Salt are physically stable, as shown by FIGS. 1 and 4.

S. agalactiae = experiment: In vitro MIC testing, antibacterial spectrum of activity; type: cell-based
S. pneumoniae = experiment: as above; type: cell-based, Streptococcus pneumoniae; conditions: S. pneumoniae [PSSP] (32 isolates)
[6] = test system: Streptococcus spp. [Group C]; experiment: as above; type: cell-based; conditions: Streptococcus spp. [Group C] (30 isolates)
S. pyogenes = experiment: as above; type: cell-based; conditions: S. pyogenes (32 isolates)
[7] = from about 30° C. to about 200° C.
[8] = from about 200° C. to about 250° C.

CC(=O)OCC1=C(C(=O)O)N2C(=O)[C@@H](NC(=O)Cc3cccs3)[C@H]2SC1 [Cephalothin]
MIC50 (E. coli; Escherichia coli, read-out: MIC50): 32 µg/mL (≈ 80.7 µM)

CON(C)Cc1ccc(O)c2c1C[C@H]1C[C@H]3[C@H](N(C)C)C(O)=C(C(N)=O)C(=O)[C@@]3(O)C(O)=C1C2=O [Comparative Example 2, (4S,4aS,5aR,12aS)-4-dimethylamino-3,10,12,12a-tetrahydroxy-7-[(methoxy(methyl)amino)-methyl]-1,11-dioxo-1,4,4a,5,5a,6,11,12a-octahydro-naphthacene-2-carboxylic acid amide]
glass transition [1]: High glass transition (166° C.) | β-isomer content upon storage at 63% RH ([1]; 63% RH): Increase in β-isomer content upon | Change in form (amorphous to crystalline) ([1]; above 75% RH): Change in form (from amorphous | β-isomer content upon storage under ambient conditions [1]: Increase in β-isomer content upon | rate of β-isomer formation upon exposure to solvent ([1]; compared to Crystalline Mono Hydrochloride Salt): Faster rate of β-isomer formation | form or β-isomer content upon milling or pressing [1]: Increase in β-isomer content upon | Hygroscopicity [1]: Hygroscopic above 70% RH | crystallization upon storage and heat/cool cycle ([1]; storage and heat/cool cycle): Stable to crystallization upon | Chemical Purity at 0 days ([2]; HPLC-UV): 94.3% | β-isomer content at 0 days ([2]; HPLC-UV): 4.4% | Chemical Purity at 75 days ([2]; HPLC-UV): 90.4% | β-isomer content at 75 days ([2]; HPLC-UV): 7.8% | increase of β-isomer content after storage ([2]; storage for 75 days at ambient conditions vs 0 days): over 80%

CON(C)Cc1ccc(O)c2c1C[C@H]1C[C@H]3[C@H](N(C)C)C(O)=C(C(N)=O)C(=O)[C@@]3(O)C(O)=C1C2=O [Crystalline Free Base, (4S,4aS,5aR,12aS)-4-dimethylamino-3,10,12,12a-tetrahydroxy-7-[(methoxy(methyl)amino)-methyl]-1,11-dioxo-1,4,4a,5,5a,6,11,12a-octahydro-naphthacene-2-carboxylic acid amide]
DSC endothermic peak [3]: 175 °C (ΔH 72 J · g^−1) | TGA weight loss ([4]; from about 30° C. to decomposition at less than 220° C.): 15% weight loss from about 30 °C

CON(C)Cc1ccc(O)c2c1C[C@H]1C[C@H]3[C@H](N(C)C)C(O)=C(C(N)=O)C(=O)[C@@]3(O)C(O)=C1C2=O [Crystalline Mesylate Salt, (4S,4aS,5aR,12aS)-4-dimethylamino-3,10,12,12a-tetrahydroxy-7-[(methoxy(methyl)amino)-methyl]-1,11-dioxo-1,4,4a,5,5a,6,11,12a-octahydro-naphthacene-2-carboxylic acid amide]
TGA weight loss [4, 7]: 3% weight loss from about 30 °C to | TGA weight loss [4, 8]: 7% weight loss from about 200 °C | crystal form by XRPD after storage [5]: no change in crystal form | Chemical Purity at 0 days ([2]; HPLC-UV): 92% | β-isomer content at 0 days ([2]; HPLC-UV): 3% | Chemical Purity at 7 days, 40° C. and 75% RH ([2]; HPLC-UV): 98% | β-isomer content at 7 days, 40° C. and 75% RH ([2]; HPLC-UV): 2%

CON(C)Cc1ccc(O)c2c1C[C@H]1C[C@H]3[C@H](N(C)C)C(O)=C(C(N)=O)C(=O)[C@@]3(O)C(O)=C1C2=O [Crystalline Mono Hydrochloride Salt, (4S,4aS,5aR,12aS)-4-dimethylamino-3,10,12,12a-tetrahydroxy-7-[(methoxy(methyl)amino)-methyl]-1,11-dioxo-1,4,4a,5,5a,6,11,12a-octahydro-naphthacene-2-carboxylic acid amide]
β-isomer content upon storage under ambient conditions [1]: No increase in β-isomer content | form or β-isomer content upon milling or pressing [1]: No change in form or β-isomer | crystallinity upon pressing and milling ([1]; pressing and milling): Some loss of crystallinity upon | Hygroscopicity [1]: Non-hygroscopic to 90% RH | TGA weight loss [4, 7]: 3% weight loss from about 30 °C to | TGA weight loss [4, 8]: 14% weight loss from about 200 °C | crystal form by XRPD after storage [5]: no change in crystal form | total impurity content at 0 days ([2]; HPLC-UV, 0 days): 4 % peak area | Chemical Purity at 0 days ([2]; HPLC-UV): 93.8% and 95.8% | β-isomer content at 0 days ([2]; HPLC-UV): 3.8% | Chemical Purity at 75 days ([2]; HPLC-UV): 94.8% | β-isomer content at 75 days ([2]; HPLC-UV): 3.8% | total impurity content after storage ([2]; about 6 months at about 40° C. and about 75% RH): 6 % peak area

CON(C)Cc1ccc(O)c2c1C[C@H]1C[C@H]3[C@H](N(C)C)C(O)=C(C(N)=O)C(=O)[C@@]3(O)C(O)=C1C2=O [Crystalline Sulfate Salt, (4S,4aS,5aR,12aS)-4-dimethylamino-3,10,12,12a-tetrahydroxy-7-[(methoxy(methyl)amino)-methyl]-1,11-dioxo-1,4,4a,5,5a,6,11,12a-octahydro-naphthacene-2-carboxylic acid amide]
TGA weight loss [4, 7]: 3% weight loss from about 30 °C to | TGA weight loss [4, 8]: 14% weight loss from about 200 °C | crystal form by XRPD after storage [5]: increased crystalline content | Chemical Purity at 0 days ([2]; HPLC-UV): 88% | β-isomer content at 0 days ([2]; HPLC-UV): 9% | Chemical Purity at 7 days, 40° C. and 75% RH ([2]; HPLC-UV): 91% | β-isomer content at 7 days, 40° C. and 75% RH ([2]; HPLC-UV): 9%

CN(C)[C@@H]1C(O)=C(C(N)=O)C(=O)[C@@]2(O)C(O)=C3C(=O)c4c(O)cccc4[C@@](C)(O)[C@H]3C[C@@H]12 [Tetracycline, tetracycline]
MIC Range (E. coli; E. coli [tetS] (7 isolates)): 1 to 4 µg/mL | MIC Range (S. agalactiae; S. agalactiae [tetR] (7 isolates)): 16 to 64 µg/mL | MIC Range (S. agalactiae; S. agalactiae [tetS] (3 isolates)): 0.25-0.25 μg/mL

Penicillin
MIC50 (S. pneumoniae): ≤0.015 µg/mL | MIC Range (S. pneumoniae): ≤0.015 to 0.12 µg/mL | MIC50 [6]: ≤0.015 µg/mL | MIC90 [6]: ≤0.015 µg/mL | MIC Range [6]: ≤0.015 to 0.03 µg/mL | MIC50 (S. pyogenes): ≤0.015 µg/mL | MIC90 (S. pyogenes): ≤0.015 µg/mL | MIC Range (S. pyogenes): ≤0.015 to 0.25 µg/mL | MIC Range (S. agalactiae; S. agalactiae (31 isolates)): ≤0.015 to 2 µg/mL
